Reference: patent US7943568B2, “Antitumor agents” (The Ohio State University Research Foundation, priority 2005, dated 2011)
“Also recorded” adds a separate entry of the source. Structures can show the parent of a compound that is named as a salt. Where two headings read alike, the source gives them in different places. Values belong to the molecule of their own block, whether it stands above or below them.

What was measured:
RBC GSH = RBC GSH depletion by DEM pretreatment in the rat; type: in vivo
Pgp [1] = target: T1, Pgp (Homo sapiens, UniProt P08183); settings: multiple cellular models
T1 sequence (P08183 whole entry): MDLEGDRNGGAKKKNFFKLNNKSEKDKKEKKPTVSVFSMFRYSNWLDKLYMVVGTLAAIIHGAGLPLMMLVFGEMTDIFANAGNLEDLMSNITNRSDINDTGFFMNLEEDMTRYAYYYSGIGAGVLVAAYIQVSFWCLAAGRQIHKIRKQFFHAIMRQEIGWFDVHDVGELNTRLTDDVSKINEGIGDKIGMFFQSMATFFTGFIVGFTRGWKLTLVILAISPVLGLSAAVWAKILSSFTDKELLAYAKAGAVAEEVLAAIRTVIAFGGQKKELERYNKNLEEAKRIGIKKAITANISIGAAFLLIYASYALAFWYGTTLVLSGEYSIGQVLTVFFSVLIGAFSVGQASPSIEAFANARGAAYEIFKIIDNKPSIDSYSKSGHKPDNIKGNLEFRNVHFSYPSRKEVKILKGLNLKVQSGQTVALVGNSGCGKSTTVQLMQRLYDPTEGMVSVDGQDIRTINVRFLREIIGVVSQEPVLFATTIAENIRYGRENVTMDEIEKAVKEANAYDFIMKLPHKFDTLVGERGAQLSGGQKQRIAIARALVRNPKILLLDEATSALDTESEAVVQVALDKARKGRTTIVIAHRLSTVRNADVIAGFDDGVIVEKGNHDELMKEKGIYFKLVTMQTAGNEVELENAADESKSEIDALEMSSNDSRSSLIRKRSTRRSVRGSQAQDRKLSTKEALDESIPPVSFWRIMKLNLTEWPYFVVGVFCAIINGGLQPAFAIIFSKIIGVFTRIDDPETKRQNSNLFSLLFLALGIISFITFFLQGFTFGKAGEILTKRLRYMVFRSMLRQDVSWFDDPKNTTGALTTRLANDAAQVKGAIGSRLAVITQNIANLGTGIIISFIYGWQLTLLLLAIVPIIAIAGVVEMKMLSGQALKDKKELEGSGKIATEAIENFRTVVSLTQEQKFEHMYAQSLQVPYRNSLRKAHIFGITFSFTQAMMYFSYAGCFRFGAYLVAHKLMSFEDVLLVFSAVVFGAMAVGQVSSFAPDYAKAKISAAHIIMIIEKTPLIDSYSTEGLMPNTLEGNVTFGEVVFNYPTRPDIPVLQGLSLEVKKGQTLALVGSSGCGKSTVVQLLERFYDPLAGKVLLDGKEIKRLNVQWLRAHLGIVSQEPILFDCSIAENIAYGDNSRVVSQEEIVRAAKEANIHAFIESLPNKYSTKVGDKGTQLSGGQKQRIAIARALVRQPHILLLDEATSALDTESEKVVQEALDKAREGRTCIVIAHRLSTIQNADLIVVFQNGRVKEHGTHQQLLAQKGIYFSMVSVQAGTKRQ

[2] = FK228 stability and protein binding in human plasma; type: in vitro ADME
[3] = target: multidrug resistant-associated protein 1 (MRP1) (Homo sapiens, UniProt P33527); settings: multiple cellular models
Sequence of multidrug resistant-associated protein 1 (MRP1) (P33527 whole entry): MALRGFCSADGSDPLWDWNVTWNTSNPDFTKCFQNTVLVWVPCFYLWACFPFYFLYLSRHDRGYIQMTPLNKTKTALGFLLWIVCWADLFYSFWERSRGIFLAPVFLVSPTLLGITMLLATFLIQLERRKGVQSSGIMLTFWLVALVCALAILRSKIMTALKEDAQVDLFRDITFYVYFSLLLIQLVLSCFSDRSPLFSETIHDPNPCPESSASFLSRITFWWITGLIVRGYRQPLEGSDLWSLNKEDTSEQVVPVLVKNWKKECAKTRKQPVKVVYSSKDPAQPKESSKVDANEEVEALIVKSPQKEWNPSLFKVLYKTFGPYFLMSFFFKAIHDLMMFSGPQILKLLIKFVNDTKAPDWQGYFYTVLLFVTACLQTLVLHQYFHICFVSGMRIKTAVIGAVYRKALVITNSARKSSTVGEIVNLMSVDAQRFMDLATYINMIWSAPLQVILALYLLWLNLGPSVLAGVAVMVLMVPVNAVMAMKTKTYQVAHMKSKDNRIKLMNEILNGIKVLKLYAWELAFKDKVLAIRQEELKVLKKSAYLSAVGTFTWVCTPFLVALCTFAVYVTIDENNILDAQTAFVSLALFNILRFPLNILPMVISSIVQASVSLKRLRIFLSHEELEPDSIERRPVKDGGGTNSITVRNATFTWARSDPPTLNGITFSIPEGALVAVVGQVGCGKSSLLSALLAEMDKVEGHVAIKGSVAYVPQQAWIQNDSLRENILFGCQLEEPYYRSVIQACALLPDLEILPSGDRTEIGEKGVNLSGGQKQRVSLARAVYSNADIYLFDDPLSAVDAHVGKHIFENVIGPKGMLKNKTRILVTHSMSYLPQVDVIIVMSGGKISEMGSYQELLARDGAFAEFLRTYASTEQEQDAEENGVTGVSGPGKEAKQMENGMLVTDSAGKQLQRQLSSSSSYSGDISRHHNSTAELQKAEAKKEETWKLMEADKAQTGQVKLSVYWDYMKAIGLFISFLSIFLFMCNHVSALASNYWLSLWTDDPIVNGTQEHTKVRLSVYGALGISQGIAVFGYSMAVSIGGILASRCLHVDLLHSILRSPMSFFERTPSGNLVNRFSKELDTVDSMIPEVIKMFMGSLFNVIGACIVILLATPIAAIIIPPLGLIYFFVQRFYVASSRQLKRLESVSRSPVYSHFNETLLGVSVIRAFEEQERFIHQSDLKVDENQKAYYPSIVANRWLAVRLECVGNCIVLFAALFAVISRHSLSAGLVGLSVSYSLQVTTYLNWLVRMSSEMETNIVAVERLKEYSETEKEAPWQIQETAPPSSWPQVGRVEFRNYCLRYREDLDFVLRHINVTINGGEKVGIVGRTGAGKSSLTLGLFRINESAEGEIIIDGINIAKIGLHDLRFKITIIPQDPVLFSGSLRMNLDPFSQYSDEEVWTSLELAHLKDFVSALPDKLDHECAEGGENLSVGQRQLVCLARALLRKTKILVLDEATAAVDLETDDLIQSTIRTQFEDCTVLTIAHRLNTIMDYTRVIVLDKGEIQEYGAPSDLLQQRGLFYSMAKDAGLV

[4] = Rat pharmacokinetics of FK228; type: in vivo; settings: for AUC(0-inf) / Cmax / MRT / clearance / Vd: male, Sprague-Dawley, plasma, iv; for clearance: read-out: Cltotal; for Vd: read-out: Vdss
Method: (§1) Pharmacokinetics and tissue distribution studies in the rat Twenty-three male S.D. rates weighing 250-300 g were divided into 5 groups. All rats were cannulated by the left jugular vein under ketamine anesthesia (im, 100 mg/kg) for drug administration and/or blood sampling. The rats were kept in metabolism cages and allowed to recover overnight with food and water given ad libitum. The animal protocols were approved by the Institutional Laboratory Animal Care and Use Committee (ILACUC) of the Ohio State University Laboratory Animal Resources (ULAR), and adhered to the guideline and “Principles of Laboratory Animal Care” by National Institutes of Health (NIH).
(§2) At the time schedule of predose, 5, 10, 20, […], 60, 120, 180, 300 minutes after doing, blood samples of 0.2 mL each were withdrawn from the same cannula with an equal volume of normal saline. Plasma was separated immediately by centrifugation (10,000 g×0.5 min.) extracted with 10-volume ethyl acetate. After centrifugation, the organic layer was transferred into a clean conical Falcon polypropylene tube, and evaporated under a stream of nitrogen. […] Weighed wet organ tissue samples were homogenized in appropriate volumes of blank human plasma with an Ultra-Turrax SDT1610 electric homogenizer (Tekmar, Cincinnati, Ohio) at the highest speed setting for 10 seconds 4 times. […] The homogenates were then extracted and determined as in plasma samples (Chan, et al. 1997; Li and Chan, 2000). Feces samples were homogenized similarly as above. After centrifugation, the supernatant was extracted and determined as plasma samples.
(§3) A 2 mm×50 mm Keystone BetaBasic-C8 column (Keystone, Bellefonte, Pa.) and an isocratic elution were used with the mobile phase consisting of 70% acetonitrile and 0.1% acetic acid at a flow rate of 0.2 mL/min. The flow leaving the HPLC column was split in a ratio of 20:1, with only 10 μL/min. entering the mass spectrometer. All samples were determined by individual calibration curves using specific blank sample matrix. […] While the recoveries from rat muscle and fat samples were further normalized to whole body weight assuming the muscle and fat compose 40 and 4% of the rat total body weight, respectively (Davies and Morris, 1993).

[5] = Tissue distribution and dose recovery (mass balance) of FK228 in the rat; type: in vivo; settings: for dose excreted: male, Sprague-Dawley, intravenous
Method: as §1, §2, §3

Pgp [6] = target: T1, Pgp; settings: earlier finding; cited from earlier work
[7] = i.v. bolus, for 250 g rats; cited from earlier work
[8] = In vitro rat blood distribution / RBC uptake of FK228
[9] = patients, 4-hour infusion; cited from earlier work
in vitro = in vitro ADME; settings: for half-life at 100 μg/mL: rat, plasma; for time to plateau or maximum concentration: FK228 100 μg/mL, 37° C.
Text: Serial samples were removed at pre-selected time points up to […]. FK228 and its major metabolites were monitored by ESI LC_MS on the API instrument.

[10] = Distribution of FK228 and metabolites between plasma and RBC after rat whole blood incubation; type: in vitro ADME, rat; settings: for detection in RBC cytosol / homogenate / detection in plasma fraction: FK228 100 μg/mL, rat whole blood, 37° C., 60 min
Method: After centrifugation, the plasma was removed and the RBC fraction was washed 8 times with 2 mL saline each. […] The RBC debris was further washed with 1 mL acetonitrile each 8 times.
The blood was centrifuged to remove plasma. To the RBC fraction was added blank rat plasma to restore the initial volume, and the mixture was homogenized by a glass tissue grinder (400 strokes). The plasma and RBC homogenates were analyzed by ESI ion-trap LC-MS. A Waters Spherisorb S3 ODS1 column (2 mm ID×10 cm, particle 5 μm, Waters Corporation, Milford, Mass., USA) with a gradient elution was used. The gradient was initiated with 25% acetonitrile in 0.1% acetic acid for 5 minutes, followed by a linear increase to 70% acetonitrile over 5 minutes, which was kept constant for 15 minutes. The mobile phase was then returned linearly to the original condition over 3 minutes, which was then maintained for 7 minutes. The cycle time for each analysis was 35 minutes.

HDAC = tested on: T2, HDAC; type: biochemical; settings: for IC50: n=3, read-out: IC50, HDAC inhibitory activity; for times more potent as HDAC inhibitors than FK228: relative to FK228
T2 construct: other: n=3; other: relative to FK228
Method: To the plasma was added 2 mL acetonitrile to precipitate the proteins. After centrifugation, the acetonitrile layer was transferred to a clean Falcon polypropylene tube and evaporated to dryness under a stream of nitrogen. […] Their HDAC inhibitory activities were assayed by using the Fluor de Lys HDAC Fluorescent Activity Assay/Drug Discovery Kit (BioMol, Plymouth Meeting, Pa.).

[11] = 2 mg/kg, I.v. bolus (n = 6), 2 mg/kg
[12] = I.v. bolus with CsA pretreatment (n = 3)
[13] = I.v. bolus with DEM pretreatment (n = 5)
[14] = after 1 hour whole blood incubation at 37° C.
[15] = rat plasma containing 10 mM GSH

SMILES: CCOC(=O)/C=C\C(=O)OCC [DEM, diethyl maleate]
depletion of RBC GSH (RBC GSH): 50%

SMILES: C/C=C1\NC(=O)[C@H]2CSSCC/C=C/[C@H](CC(=O)N[C@H](C(C)C)C(=O)N2)OC(=O)[C@H](C(C)C)NC1=O [FK228, (E)-(1S,4S,10S,21R)-7-[(Z)-ethylidene]-4,21-diisopropyl-2-oxz-12,13-dithia-5,8,20,23-tetraazabicyclo[8,7,6]-tricos-16ene-3,6,9,19,22-pentanone]
Pgp substrate (Pgp [1]): substrate
binding to plasma proteins [2]: over 90%
stability [2]: stable
MRP1 substrate [3]: substrate
plasma FK228 concentrations ([4]; following i.v. infusion): < 20 nM
AUC(0-inf) ([4]; 2 mg/kg, I.v. bolus (n = 6)): 0.0683 µM·h
Cmax ([4]; 2 mg/kg, I.v. bolus (n = 6)): 490 ± 164 nM
MRT ([4]; 2 mg/kg, I.v. bolus (n = 6)): 36.3 min
clearance [4, 11]: 237 ± 58 mL/min
Vd [4, 11]: 32.7 ± 4.51 L/kg
Cmax ([4]; 2 mg/kg, I.v. infusion (n = 6)): 25.3 ± 3.7 nM
MRT ([4]; 2 mg/kg, I.v. infusion (n = 6)): 17.7 min
Vd ([4]; 2 mg/kg, I.v. infusion (n = 6)): 10.8 ± 2.7 L/kg
AUC(0-inf) [4, 12]: 0.0667 µM·h
Cmax [4, 12]: 548 ± 249 nM
MRT [4, 12]: 27 min
clearance [4, 12]: 249 ± 18 mL/min
Vd [4, 12]: 29 ± 3.2 L/kg
AUC(0-inf) [4, 13]: 0.0903 µM·h
MRT [4, 13]: 30 min
Cmax ([4]; I.v. bolus with DEM pretreatment (n = 5), called C0 in text): 1180 ± 637 nM
clearance [4, 13]: 276 ± 152 mL/min
Vd [4, 13]: 22.4 ± 13 L/kg
AUC(0-inf) ([4]; I.v. infusion (n = 6)): 0.103 µM·h
clearance ([4]; I.v. infusion (n = 6)): 179 ± 27.5 mL/min
Vd ([4]; I.v. infusion (n = 6)): 11.8 ± 2.7 L/kg
total amount of FK228 in 24-hour urine and 6-hour bile [5]: less than 11 % of the dose
total recovery of intact FK228 from 9 major organ tissues ([5]; 6 hours): 2.5±1.26%
total recovery of intact FK228 from 9 major organ tissues ([5]; 24 hours): 0.56±0.3%
dose excreted ([5]; bile, n=3, read-out: dose recovery from 6 hour bile): 4.76 ± 0.34%
dose excreted ([5]; urine, 2 mg/kg, n=6, read-out: dose recovery from 24 hour urine): 5.9 ± 1.6%
P-glycoprotein substrate (Pgp [6]): substrate
distribution volume [7]: 22.3 ± 7.3 L/kg
total body clearance [7]: 425.3 ± 117.7 mL/min
recovery at 1 h, 10 μg/mL ([8]; male, Sprague-Dawley, rat, fresh heparinized whole blood): < 35%
plasma FK228 remaining ([8]; rat blood at 37° C., within 2 minutes, 0.1-10 μg/mL): over 20%
maximum tolerated dose (MTD) [9]: 17.8 mg/m^2

SMILES: C/C=C1\NC(=O)C(CS)NC(=O)C(C(C)C)NC(=O)CC(/C=C/CCS)OC(=O)C(C(C)C)NC1=O (centres unmarked) [metabolite A]
half-life at 100 μg/mL (in vitro): 18.5 min
fate in rat RBC [10]: pumped out of rat RBC
IC50 (HDAC): 1.65 ± 0.24 nM
times more potent as HDAC inhibitors than FK228 (HDAC): at least 46 times

SMILES: CC(C)C1NC(=O)CC(/C=C/CCS)OC(=O)C(C(C)C)NC(=O)C2NC(=O)C(CSC2C)NC1=O (centres unmarked) [metabolite B]
stability of metabolite (in vitro; rat plasma containing 10 mM GSH, in words): instable
half-life at 100 μg/mL (in vitro; read-out: terminal half life): 14.4 min
detection in RBC cytosol / homogenate [10]: detected
detection in plasma fraction [10]: detected
fate in rat RBC [10, 14]: remained in rat RBC
IC50 (HDAC): 0.94 ± 0.14 nM
times more potent as HDAC inhibitors than FK228 (HDAC): ≥ 82 times

SMILES: CC(C)C1NC(=O)CC(/C=C\CCSSCC(NC(=O)CCC(N)C(=O)O)C(=O)NCC(=O)O)OC(=O)C(C(C)C)NC(=O)C2NC(=O)C(CSC2C)NC1=O (centres unmarked) [metabolite D]
time to plateau or maximum concentration (in vitro; [15]): 1 h
detection in RBC cytosol / homogenate [10]: detected
detection in plasma fraction [10]: detected
fate in rat RBC [10, 14]: remained in rat RBC
IC50 (HDAC): 15.9 ± 2.7 nM

SMILES: CC(C)C1NC(=O)CC2/C=C/CCSSCC(NC1=O)C(=O)NC(C(C)SCC(NC(=O)CCC(N)C(=O)O)C(=O)NCC(=O)O)C(=O)NC(C(C)C)C(=O)O2 (centres unmarked) [metabolite E]
time to plateau or maximum concentration (in vitro; [15]): 2 h
detection in RBC cytosol / homogenate [10]: detected; also recorded: minor peak
detection in plasma fraction [10]: minor peak

detection in plasma fraction [10]: detected
fate in rat RBC [10, 14]: pumped out of rat RBC
SMILES: CC(C)C1NC(=O)CC(/C=C/CCS)OC(=O)C(C(C)C)NC2(O)SCC(NC1=O)C(=O)NC2C(C)SCC(NC(=O)CCC(N)C(=O)O)C(=O)NCC(=O)O (centres unmarked) [metabolite F]
